The values below come from ChEMBL document CHEMBL1150356, “Design, synthesis and biological evaluation of substituted pyrrolo[2,3-d]pyrimidines as multiple receptor tyrosine kinase inhibitors and antiangiogenic agents” (Bioorg Med Chem, 2008).

As usually defined, the IC50 is the point on the concentration scale where inhibition reaches its midpoint. A high value points to a need for much substance.

Test [1] concerns the target Platelet-derived growth factor receptor beta (Homo sapiens, UniProt P09619). Kind of test: Inhibition of PDGFRbeta expressed in human tumor cells.
Test [2] concerns the target Epidermal growth factor receptor (Homo sapiens, UniProt P00533). Put plainly: Inhibition of EGFR expressed in human tumor cells.
In test [3] the target is Vascular endothelial growth factor receptor 1 (Homo sapiens, UniProt P17948). Kind of test: Inhibition of VEGFR1 expressed in human tumor cells.
Vascular endothelial growth factor receptor 1, sequence (P17948 whole entry): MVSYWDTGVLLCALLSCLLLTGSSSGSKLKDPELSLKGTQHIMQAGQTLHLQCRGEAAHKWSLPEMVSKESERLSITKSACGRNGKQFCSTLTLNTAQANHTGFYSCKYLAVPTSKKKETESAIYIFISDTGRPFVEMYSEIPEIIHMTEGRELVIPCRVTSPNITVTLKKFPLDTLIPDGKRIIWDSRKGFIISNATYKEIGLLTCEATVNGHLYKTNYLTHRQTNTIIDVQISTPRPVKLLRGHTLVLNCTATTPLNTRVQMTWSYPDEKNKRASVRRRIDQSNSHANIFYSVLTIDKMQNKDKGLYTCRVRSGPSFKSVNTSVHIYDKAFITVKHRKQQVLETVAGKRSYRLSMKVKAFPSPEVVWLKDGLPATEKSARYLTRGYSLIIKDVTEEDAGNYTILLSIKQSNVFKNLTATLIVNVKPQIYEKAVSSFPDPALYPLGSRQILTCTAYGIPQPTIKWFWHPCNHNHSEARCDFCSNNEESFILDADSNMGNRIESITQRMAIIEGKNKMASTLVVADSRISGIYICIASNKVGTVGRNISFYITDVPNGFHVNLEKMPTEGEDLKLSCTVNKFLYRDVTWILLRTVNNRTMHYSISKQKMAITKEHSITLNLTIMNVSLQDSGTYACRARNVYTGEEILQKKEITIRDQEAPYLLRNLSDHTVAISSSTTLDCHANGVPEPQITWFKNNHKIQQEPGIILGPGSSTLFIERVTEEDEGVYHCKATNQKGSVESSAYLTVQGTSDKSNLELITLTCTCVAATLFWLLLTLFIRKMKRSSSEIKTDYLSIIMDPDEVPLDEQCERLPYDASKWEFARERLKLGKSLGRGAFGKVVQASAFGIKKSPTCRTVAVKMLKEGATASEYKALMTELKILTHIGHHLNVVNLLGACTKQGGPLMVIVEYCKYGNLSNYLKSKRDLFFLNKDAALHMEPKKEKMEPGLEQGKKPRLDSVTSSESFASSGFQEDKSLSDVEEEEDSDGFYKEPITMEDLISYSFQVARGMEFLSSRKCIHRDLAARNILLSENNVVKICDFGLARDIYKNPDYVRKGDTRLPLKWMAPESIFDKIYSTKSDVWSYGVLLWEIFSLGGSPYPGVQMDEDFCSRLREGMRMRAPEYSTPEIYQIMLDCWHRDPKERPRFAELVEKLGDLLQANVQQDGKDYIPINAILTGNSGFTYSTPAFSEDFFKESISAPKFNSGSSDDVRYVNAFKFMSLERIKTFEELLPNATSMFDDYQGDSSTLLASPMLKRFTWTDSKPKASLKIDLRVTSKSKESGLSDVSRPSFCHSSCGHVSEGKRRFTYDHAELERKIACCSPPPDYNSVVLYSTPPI
For test [4], the species on record is Gallus gallus. Put plainly: Antiangiogenic activity against fertile leghorn chicken eggs by CAM assay. The format is functional, organism-based.
The subject of test [5] is A-431. Kind of test: cells. The following applies: Homo sapiens.
Description: Cytotoxicity against human A431 cells
For test [6], the target named is Vascular endothelial growth factor receptor 2 (Homo sapiens, UniProt P35968).
Vascular endothelial growth factor receptor 2, sequence (P35968 whole entry): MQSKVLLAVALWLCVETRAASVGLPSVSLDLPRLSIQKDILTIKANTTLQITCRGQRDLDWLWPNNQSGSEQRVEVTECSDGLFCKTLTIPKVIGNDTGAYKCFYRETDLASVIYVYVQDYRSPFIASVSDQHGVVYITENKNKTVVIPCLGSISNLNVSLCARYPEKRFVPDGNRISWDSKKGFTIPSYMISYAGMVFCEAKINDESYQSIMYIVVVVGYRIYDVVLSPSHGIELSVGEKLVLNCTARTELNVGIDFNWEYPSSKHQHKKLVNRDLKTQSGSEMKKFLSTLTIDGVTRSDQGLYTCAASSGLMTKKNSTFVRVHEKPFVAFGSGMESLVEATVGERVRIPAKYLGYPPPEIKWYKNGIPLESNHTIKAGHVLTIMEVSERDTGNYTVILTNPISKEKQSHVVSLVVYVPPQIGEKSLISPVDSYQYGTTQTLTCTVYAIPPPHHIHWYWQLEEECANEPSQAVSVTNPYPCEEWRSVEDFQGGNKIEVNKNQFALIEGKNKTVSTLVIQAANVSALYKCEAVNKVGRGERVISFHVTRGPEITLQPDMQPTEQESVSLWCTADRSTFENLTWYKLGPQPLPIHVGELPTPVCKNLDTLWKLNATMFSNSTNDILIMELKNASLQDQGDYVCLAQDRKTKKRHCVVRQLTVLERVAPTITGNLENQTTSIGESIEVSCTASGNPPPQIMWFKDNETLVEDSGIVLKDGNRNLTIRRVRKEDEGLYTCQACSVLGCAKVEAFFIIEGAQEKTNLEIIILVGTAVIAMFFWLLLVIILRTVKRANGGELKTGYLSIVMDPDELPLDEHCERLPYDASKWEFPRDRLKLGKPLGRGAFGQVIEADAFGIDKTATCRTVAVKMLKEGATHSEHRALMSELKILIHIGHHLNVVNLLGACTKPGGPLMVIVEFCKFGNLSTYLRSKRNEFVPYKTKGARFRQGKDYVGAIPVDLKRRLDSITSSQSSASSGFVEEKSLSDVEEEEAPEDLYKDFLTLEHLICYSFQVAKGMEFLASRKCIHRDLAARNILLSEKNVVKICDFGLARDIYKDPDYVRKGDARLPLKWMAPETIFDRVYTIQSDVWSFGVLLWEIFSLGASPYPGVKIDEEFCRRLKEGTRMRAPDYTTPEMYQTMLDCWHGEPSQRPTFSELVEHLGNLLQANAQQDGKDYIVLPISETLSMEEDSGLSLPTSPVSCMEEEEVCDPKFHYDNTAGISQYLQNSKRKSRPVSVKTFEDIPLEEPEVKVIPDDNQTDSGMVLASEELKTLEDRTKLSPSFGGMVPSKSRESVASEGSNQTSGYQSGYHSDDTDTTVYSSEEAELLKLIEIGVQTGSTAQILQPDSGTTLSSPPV
Description: Inhibition of VEGFR2 expressed in human tumor cells

Platelet-derived growth factor receptor beta, sequence (P09619 whole entry): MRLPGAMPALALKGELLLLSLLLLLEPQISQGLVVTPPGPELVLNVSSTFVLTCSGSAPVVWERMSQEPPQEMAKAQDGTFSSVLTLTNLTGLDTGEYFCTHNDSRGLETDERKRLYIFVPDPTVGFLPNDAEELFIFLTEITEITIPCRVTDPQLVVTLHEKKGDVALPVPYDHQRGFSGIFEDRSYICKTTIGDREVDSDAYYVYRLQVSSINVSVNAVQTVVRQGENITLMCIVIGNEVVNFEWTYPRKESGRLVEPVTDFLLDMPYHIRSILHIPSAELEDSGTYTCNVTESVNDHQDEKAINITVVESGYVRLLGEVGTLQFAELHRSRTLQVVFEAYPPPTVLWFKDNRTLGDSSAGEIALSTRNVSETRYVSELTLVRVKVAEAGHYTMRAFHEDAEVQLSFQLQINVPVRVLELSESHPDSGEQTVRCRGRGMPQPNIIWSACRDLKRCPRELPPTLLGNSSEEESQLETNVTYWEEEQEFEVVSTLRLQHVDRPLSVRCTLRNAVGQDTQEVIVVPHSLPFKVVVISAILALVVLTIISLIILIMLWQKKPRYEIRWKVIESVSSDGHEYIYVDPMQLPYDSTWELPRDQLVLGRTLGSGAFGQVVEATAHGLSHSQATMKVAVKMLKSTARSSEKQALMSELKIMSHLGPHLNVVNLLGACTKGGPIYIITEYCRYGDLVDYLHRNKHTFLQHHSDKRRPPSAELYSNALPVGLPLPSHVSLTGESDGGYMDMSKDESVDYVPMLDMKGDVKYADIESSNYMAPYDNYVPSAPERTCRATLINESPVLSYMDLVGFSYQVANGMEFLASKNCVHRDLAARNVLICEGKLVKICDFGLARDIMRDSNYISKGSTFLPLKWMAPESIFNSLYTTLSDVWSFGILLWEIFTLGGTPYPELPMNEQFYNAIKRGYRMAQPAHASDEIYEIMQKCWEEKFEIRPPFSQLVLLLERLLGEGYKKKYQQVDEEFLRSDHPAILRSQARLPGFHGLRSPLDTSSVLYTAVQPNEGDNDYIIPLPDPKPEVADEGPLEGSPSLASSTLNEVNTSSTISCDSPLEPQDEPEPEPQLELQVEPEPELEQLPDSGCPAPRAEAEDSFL
Epidermal growth factor receptor, sequence (P00533 whole entry): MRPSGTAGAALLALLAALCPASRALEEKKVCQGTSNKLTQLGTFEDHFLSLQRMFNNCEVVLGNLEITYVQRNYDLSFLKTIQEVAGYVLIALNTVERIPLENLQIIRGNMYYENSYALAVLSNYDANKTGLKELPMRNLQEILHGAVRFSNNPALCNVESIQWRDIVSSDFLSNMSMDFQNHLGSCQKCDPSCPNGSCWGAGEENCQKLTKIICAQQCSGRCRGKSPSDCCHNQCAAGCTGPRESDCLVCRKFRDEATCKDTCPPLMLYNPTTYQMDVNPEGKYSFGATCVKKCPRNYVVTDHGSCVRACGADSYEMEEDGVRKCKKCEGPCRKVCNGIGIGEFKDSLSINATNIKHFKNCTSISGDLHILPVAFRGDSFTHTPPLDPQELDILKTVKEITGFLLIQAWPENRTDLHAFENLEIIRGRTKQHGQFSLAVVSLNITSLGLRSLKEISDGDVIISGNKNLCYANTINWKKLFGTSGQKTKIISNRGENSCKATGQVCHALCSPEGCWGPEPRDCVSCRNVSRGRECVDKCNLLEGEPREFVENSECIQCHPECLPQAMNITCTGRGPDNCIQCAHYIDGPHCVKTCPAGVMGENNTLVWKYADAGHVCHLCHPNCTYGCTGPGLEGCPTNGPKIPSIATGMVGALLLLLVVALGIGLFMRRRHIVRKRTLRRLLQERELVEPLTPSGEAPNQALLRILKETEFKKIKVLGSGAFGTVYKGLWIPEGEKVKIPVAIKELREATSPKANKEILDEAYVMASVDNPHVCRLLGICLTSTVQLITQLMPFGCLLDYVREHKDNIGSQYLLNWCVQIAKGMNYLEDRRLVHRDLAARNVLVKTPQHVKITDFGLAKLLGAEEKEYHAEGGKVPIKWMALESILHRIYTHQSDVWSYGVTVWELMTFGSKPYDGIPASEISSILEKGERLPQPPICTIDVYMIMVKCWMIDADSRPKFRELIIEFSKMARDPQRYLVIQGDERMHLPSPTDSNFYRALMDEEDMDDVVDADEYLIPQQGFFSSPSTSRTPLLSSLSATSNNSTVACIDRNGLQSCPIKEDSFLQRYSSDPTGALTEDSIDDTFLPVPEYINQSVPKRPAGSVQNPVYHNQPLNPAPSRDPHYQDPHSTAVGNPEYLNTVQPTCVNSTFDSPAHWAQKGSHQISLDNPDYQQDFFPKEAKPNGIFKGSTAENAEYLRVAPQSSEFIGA

Regarding `Nc1nc(Nc2cccc(Br)c2)c2cc(Cc3ccc4ccccc4c3)[nH]c2n1`, the 50% inhibitory concentration (IC50) in test [1] was over 50 µM.

With `Nc1nc(Nc2cccc(Br)c2)c2cc(CCc3cccc4ccccc34)[nH]c2n1`, the IC50 in test [2] worked out at 4.8 µM; in test [3], 11.2 µM; in test [4], 15.2 µM; in test [1], 11 µM; in test [5], 8.2 µM.

For the compound `Nc1nc(Nc2ccc3[nH]ccc3c2)c2cc(CCc3ccccc3)[nH]c2n1`, the IC50 was over 200 µM in test [2], 24.9 µM in test [6], over 200 µM in test [3] and 77.4 µM in test [1].

For `Nc1nc(Nc2ccc(Cl)cc2)c2cc(CCc3ccccc3)[nH]c2n1`, the 50% inhibitory concentration (IC50) in test [2] is 3.18 µM; in test [6], over 200 µM; in test [3], over 200 µM; in test [4] it was 3.3 µM; in test [1], over 500 µM; in test [5], 1.6 µM.

Consider `Nc1nc(Nc2cccc(Br)c2)c2cc(CCc3ccccc3Cl)[nH]c2n1`, for which the 50% inhibitory concentration (IC50) in test [2] is 3.4 µM; in test [6], 42.3 µM; in test [3], 32.7 µM; in test [4] it was 10.1 µM; in test [1], over 50 µM; in test [5] it was 13.2 µM.

`C#Cc1cccc(Nc2nc(N)nc3[nH]c(CCc4ccccc4)cc23)c1`: the 50% inhibitory concentration (IC50) was over 200 µM in test [2], over 200 µM in test [6], over 200 µM in test [3] and 100 µM in test [1].

Regarding `Nc1nc(Nc2cccc(Br)c2)c2cc(CCc3ccc4ccccc4c3)[nH]c2n1`, the IC50 in test [2] was 4.7 µM; in test [6] it was 16.8 µM; in test [3] it was 7.8 µM; in test [4] it was 18.9 µM; in test [1] it was 13.7 µM; in test [5], over 50 µM.

With `Nc1nc(Nc2cccc(Br)c2)c2cc(Cc3ccccc3Cl)[nH]c2n1`, the IC50 is 1.7 µM in test [4] and over 50 µM in test [1].

Consider `Nc1nc(Nc2ccc(F)c(Cl)c2)c2cc(CCc3ccccc3)[nH]c2n1`, for which the IC50 in test [2] was 22.8 µM; in test [6], 132 µM; in test [3] it was over 200 µM; in test [4], 5.9 µM; in test [1] it was over 500 µM; in test [5], 6.8 µM.

Turning to `COc1ccc(CCc2cc3c(Nc4cccc(Br)c4)nc(N)nc3[nH]2)cc1`, the IC50 in test [2] is 2.2 µM; in test [6], over 50 µM; in test [3], 31.8 µM; in test [4], 21.1 µM; in test [1], over 50 µM; in test [5], over 50 µM.

For the compound `Nc1nc(Nc2ccc(F)c(Br)c2)c2cc(CCc3ccccc3)[nH]c2n1`, the half-maximal inhibitory concentration (IC50) is over 200 µM in test [2]; 198 µM in test [6]; over 200 µM in test [3]; over 500 µM in test [1]; 3.4 µM in test [5].

Turning to `Nc1nc(Nc2ccc(F)c(C(F)(F)F)c2)c2cc(CCc3ccccc3)[nH]c2n1`, the IC50 in test [2] was 122 µM; in test [6] it was over 200 µM; in test [3] it was over 200 µM; in test [1] it was 90 µM.

Take `Nc1nc(Nc2cccc(Br)c2)c2cc(CCc3ccccc3)[nH]c2n1`: the half-maximal inhibitory concentration (IC50) in test [2] is 0.3 µM; in test [6], over 50 µM; in test [3], 45.1 µM; in test [4], 19.5 µM; in test [1], 11.8 µM.

The compound `Nc1nc(Nc2cccc(Br)c2)c2cc(Cc3cccc4ccccc34)[nH]c2n1` had a 50% inhibitory concentration (IC50) in test [4] of 0.053 µM.

For the compound `Nc1nc(Nc2cccc(Br)c2)c2cc(Cc3ccccc3)[nH]c2n1`, in test [1], the 50% inhibitory concentration (IC50) is over 50 µM.

For `Nc1nc(Nc2ccc(Cl)cc2F)c2cc(CCc3ccccc3)[nH]c2n1`, the half-maximal inhibitory concentration (IC50) in test [2] was 1.32 µM; in test [6], over 200 µM; in test [3], over 200 µM; in test [1], over 500 µM.

Turning to `Nc1nc(Nc2cccc(C(F)(F)F)c2)c2cc(CCc3ccccc3)[nH]c2n1`, the IC50 in test [2] was over 200 µM; in test [6], over 200 µM; in test [3] it was over 200 µM; in test [1] it was over 500 µM.
